From US8247211B2, “Glycopeptide antibiotics” (American Cyanamid Company, priority 2001, dated 2012)
Values after ≈ are worked out from the molar mass of the structure shown. Blank lines part the entries; values can stand above or below the compound they belong to.

Key:
Assay in all cases: In vitro antibacterial evaluation: minimum inhibitory concentration (MIC), broth dilution method
Type in all cases: cell-based
[1] = test system: Staphylococcus sp.; conditions: for MIC Staphylococcus aureus (ATCC 29213): strain ATCC 29213; for MIC Staphylococcus aureus (GC 1131): strain GC 1131; for MIC Staphylococcus aureus (GC 4541): strain GC 4541; for MIC Staphylococcus aureus (GC 4542): strain GC 4542; for MIC Staphylococcus aureus-SMITH (GC 4543): strain GC 4543; for MIC Staphylococcus aureus (GC 4544): strain GC 4544; for MIC Staphylococcus aureus (GC 4545): strain GC 4545; for MIC Staphylococcus haemolyticus (GC 4546): strain GC 4546; for MIC Coagulase Negative Staphylococcus (GC 4547): strain GC 4547; for MIC Coagulase Negative Staphylococcus (GC 4548): strain GC 4548; for MIC Coagulase Negative Staphylococcus (GC 4549): strain GC 4549; for MIC Coagulase Negative Staphylococcus (GC 4551): strain GC 4551; for MIC Coagulase Negative Staphylococcus (ID-3941): strain ID-3941; for MIC Staphylococcus aureus (GC 3051): strain GC 3051; for MIC Staphylococcus aureus (GC 3053): strain GC 3053; for MIC Coagulase Negative Staphylococcus (GC 6257): strain GC 6257
Protocol: (§1) The minimum inhibitory concentration (MIC), the lowest concentration of the antibiotic which inhibits growth of the test organism, is determined by the broth dilution method using Muller-Hinton II […] (Baltimore Biological Laboratories) following the recommendations of the National Committee for Clinical Laboratory Standards [Methods for dilution antimicrobial susceptibility tests for bacteria that grow aerobically, approved standard M7-A2, National Committee for Clinical Laboratory Standards, Villanova, Pa].
(§2) An inoculum level of 5×10^5 CFU/mL, and a range of antibiotic concentrations (64-0.06 μg/mL) is used. […] The test organisms include a spectrum of Gram-positive bacteria comprised of Staphylococcus sp., Streptococcus sp. and Enterococcus sp. These organisms include recent clinical isolates that are resistant to methicillin, penicillin and/or vancomycin.

[2] = test system: Streptococcus sp.; conditions: broth dilution, 5×10^5 CFU/mL, 18 hours at 35° C.
Protocol: as §1, §2

[3] = test system: Escherichia coli; conditions: 5×10^5 CFU/mL, 18 hours at 35° C.
Protocol: as §1, §2

[4] = test system: Enterococcus sp.; conditions: broth dilution, 5×10^5 CFU/mL, 18 hours at 35° C.
Protocol: as §1, §2

[5] = broth dilution, 18 hours at 35° C.

MIC Staphylococcus aureus (ATCC 29213) [1]: 1 µg/mL (≈ 0.726 µM)
MIC Staphylococcus aureus (ATCC 29213) [1, 5]: 1 µg/mL (≈ 0.726 µM)
MIC Staphylococcus aureus (GC 1131) [1]: 1 µg/mL (≈ 0.726 µM)
MIC Staphylococcus aureus (GC 1131) [1, 5]: 1 µg/mL (≈ 0.726 µM)
MIC Staphylococcus aureus (GC 4541) [1]: 1 µg/mL (≈ 0.726 µM)
MIC Staphylococcus aureus (GC 4541) [1, 5]: 1 µg/mL (≈ 0.726 µM)
MIC Staphylococcus aureus (GC 4542) [1]: 1 µg/mL (≈ 0.726 µM)
MIC Staphylococcus aureus (GC 4542) [1, 5]: 1 µg/mL (≈ 0.726 µM)
MIC Staphylococcus aureus-SMITH (GC 4543) ([1]; 18 hours at 35° C.): 1 µg/mL (≈ 0.726 µM)
MIC Staphylococcus aureus-SMITH (GC 4543) [1, 5]: 1 µg/mL (≈ 0.726 µM)
MIC Staphylococcus aureus (GC 4544) [1]: 2 µg/mL (≈ 1.45 µM)
MIC Staphylococcus aureus (GC 4544) [1, 5]: 2 µg/mL (≈ 1.45 µM)
MIC Staphylococcus aureus (GC 4545) [1]: 1 µg/mL (≈ 0.726 µM)
MIC Staphylococcus aureus (GC 4545) [1, 5]: 1 µg/mL (≈ 0.726 µM)
MIC Coagulase Negative Staphylococcus (GC 4547) [1]: 1 µg/mL (≈ 0.726 µM)
MIC Coagulase Negative Staphylococcus (GC 4547) [1, 5]: 1 µg/mL (≈ 0.726 µM)
MIC Coagulase Negative Staphylococcus (GC 4548) [1]: 1 µg/mL (≈ 0.726 µM)
MIC Coagulase Negative Staphylococcus (GC 4548) [1, 5]: 1 µg/mL (≈ 0.726 µM)
MIC Coagulase Negative Staphylococcus (GC 4549) [1]: 1 µg/mL (≈ 0.726 µM)
MIC Coagulase Negative Staphylococcus (GC 4549) [1, 5]: 1 µg/mL (≈ 0.726 µM)
MIC Coagulase Negative Staphylococcus (GC 4551) [1]: 1 µg/mL (≈ 0.726 µM)
MIC Coagulase Negative Staphylococcus (GC 4551) [1, 5]: 1 µg/mL (≈ 0.726 µM)
MIC Coagulase Negative Staphylococcus (ID-3941) [1]: 1 µg/mL (≈ 0.726 µM)
MIC Coagulase Negative Staphylococcus (ID-3941) [1, 5]: 1 µg/mL (≈ 0.726 µM)
MIC Streptococcus agalactiae (GC 4564) [2]: <0.5 µg/mL
MIC Streptococcus pneumoniae (GC 4565) [2]: <0.5 µg/mL
MIC Streptococcus pyogenes (ID-3187) [2]: <0.5 µg/mL
MIC Escherichia coli (ATCC 25922) [3]: 64 µg/mL (≈ 46.5 µM)
MIC Enterococccus avium (GC 4558) [4]: 4 µg/mL (≈ 2.9 µM)
MIC Enterococccus faecalis (ATCC 29212) [4]: 4 µg/mL (≈ 2.9 µM)
MIC Enterococccus faecalis (GC 4552) [4]: 4 µg/mL (≈ 2.9 µM)
MIC Enterococccus faecalis (GC 4553) [4]: 4 µg/mL (≈ 2.9 µM)
MIC Enterococccus faecalis (GC 4554) [4]: 2 µg/mL (≈ 1.45 µM)
MIC Enterococccus faecium (GC 2243) [4]: 4 µg/mL (≈ 2.9 µM)
MIC Enterococccus faecium (GC 4556) [4]: 2 µg/mL (≈ 1.45 µM)
MIC Enterococccus faecium (GC 4557) [4]: 2 µg/mL (≈ 1.45 µM)
MIC Enterococcus faecalis (GC 2242) [4]: 2 µg/mL (≈ 1.45 µM)
Compound: CC(c1ccccc1)C1NC(=O)CNC(=O)C(CO)NC(=O)C(C(O)C2CNC(=N)N2C2OC(CO)C(O)C(O)C2O)NC(=O)C(C(O)C2CNC(=N)N2)NC(=O)C(Cc2ccc(OC3OC(CO)C(OC4OC5COC(CC(C)(C)C)OC5C(O)C4O)C(O)C3O)cc2)NC1=O (centres unmarked) [Example 110]
MIC Staphylococcus haemolyticus (GC 4546) [1]: 1 µg/mL (≈ 0.726 µM)
MIC Staphylococcus haemolyticus (GC 4546) [1, 5]: 1 µg/mL (≈ 0.726 µM)

Compound: CCCCOC(=O)CCC1OCC2OC(OC3C(CO)OC(Oc4ccc(CC5NC(=O)C(C(C)c6ccccc6)NC(=O)CNC(=O)C(CO)NC(=O)C(C(O)C6CNC(=N)N6C6OC(CO)C(O)C(O)C6O)NC(=O)C(C(O)C6CNC(=N)N6)NC5=O)cc4)C(O)C3O)C(O)C(O)C2O1 (stereo not drawn) [Example 114, Cyclo[glycyl-β-methylphenylalanyl-O-[4-O-[4,6-O-(4-butoxy-4-oxobutylidene)hexopyranosyl]-hexopyranosyl]tyrosyl-3-(2-iminoimidazolidin-4-yl)seryl-3-(3-hexopyranosyl-2-iminoimidazolidin-4-yl)serylseryl]]
MIC Staphylococcus aureus (ATCC 29213) [1]: 2 µg/mL (≈ 1.39 µM)
MIC Staphylococcus aureus (ATCC 29213) [1, 5]: 2 µg/mL (≈ 1.39 µM)
MIC Staphylococcus aureus (GC 1131) [1]: 2 µg/mL (≈ 1.39 µM)
MIC Staphylococcus aureus (GC 1131) [1, 5]: 2 µg/mL (≈ 1.39 µM)
MIC Staphylococcus aureus (GC 3051) [1]: 2 µg/mL (≈ 1.39 µM)
MIC Staphylococcus aureus (GC 3051) [1, 5]: 2 µg/mL (≈ 1.39 µM)
MIC Staphylococcus aureus (GC 3053) [1]: 2 µg/mL (≈ 1.39 µM)
MIC Staphylococcus aureus (GC 3053) [1, 5]: 2 µg/mL (≈ 1.39 µM)
MIC Staphylococcus aureus (GC 4541) [1]: 2 µg/mL (≈ 1.39 µM)
MIC Staphylococcus aureus (GC 4541) [1, 5]: 2 µg/mL (≈ 1.39 µM)
MIC Staphylococcus aureus (GC 4542) [1]: 1 µg/mL (≈ 0.697 µM)
MIC Staphylococcus aureus (GC 4542) [1, 5]: 1 µg/mL (≈ 0.697 µM)
MIC Staphylococcus aureus-SMITH (GC 4543) ([1]; 18 hours at 35° C.): 2 µg/mL (≈ 1.39 µM)
MIC Staphylococcus aureus-SMITH (GC 4543) [1, 5]: 2 µg/mL (≈ 1.39 µM)
MIC Staphylococcus aureus (GC 4544) [1]: 2 µg/mL (≈ 1.39 µM)
MIC Staphylococcus aureus (GC 4544) [1, 5]: 2 µg/mL (≈ 1.39 µM)
MIC Staphylococcus aureus (GC 4545) [1]: 2 µg/mL (≈ 1.39 µM)
MIC Staphylococcus aureus (GC 4545) [1, 5]: 2 µg/mL (≈ 1.39 µM)
MIC Staphylococcus haemolyticus (GC 4546) [1]: 1 µg/mL (≈ 0.697 µM)
MIC Staphylococcus haemolyticus (GC 4546) [1, 5]: 1 µg/mL (≈ 0.697 µM)
MIC Coagulase Negative Staphylococcus (GC 4547) [1]: 2 µg/mL (≈ 1.39 µM)
MIC Coagulase Negative Staphylococcus (GC 4547) [1, 5]: 2 µg/mL (≈ 1.39 µM)
MIC Coagulase Negative Staphylococcus (GC 4548) [1]: 1 µg/mL (≈ 0.697 µM)
MIC Coagulase Negative Staphylococcus (GC 4548) [1, 5]: 1 µg/mL (≈ 0.697 µM)
MIC Coagulase Negative Staphylococcus (GC 4549) [1]: 2 µg/mL (≈ 1.39 µM)
MIC Coagulase Negative Staphylococcus (GC 4549) [1, 5]: 2 µg/mL (≈ 1.39 µM)
MIC Coagulase Negative Staphylococcus (GC 4551) [1]: 2 µg/mL (≈ 1.39 µM)
MIC Coagulase Negative Staphylococcus (GC 4551) [1, 5]: 2 µg/mL (≈ 1.39 µM)
MIC Coagulase Negative Staphylococcus (GC 6257) [1]: 1 µg/mL (≈ 0.697 µM)
MIC Coagulase Negative Staphylococcus (GC 6257) [1, 5]: 1 µg/mL (≈ 0.697 µM)
MIC Streptococcus agalactiae (GC 4564) [2]: 0.5 µg/mL (≈ 0.348 µM)
MIC Streptococcus pneumoniae (GC 1894) [2]: <0.06 µg/mL
MIC Streptococcus pneumoniae (GC 4565) [2]: 0.25 µg/mL (≈ 0.174 µM)
MIC Streptococcus pneumonine (ATCC 6301) [2]: 0.12 µg/mL (≈ 0.0836 µM)
MIC Streptococcus pyogenes (GC 4563) [2]: 0.5 µg/mL (≈ 0.348 µM)
MIC Escherichia coli (ATCC 25922) [3]: 64 µg/mL (≈ 44.6 µM)
MIC Escherichia coli (GC 4559) [3]: 64 µg/mL (≈ 44.6 µM)
MIC Escherichia coli (GC 4560) [3]: 1 µg/mL (≈ 0.697 µM)
MIC Enterococccus avium (GC 4558) [4]: 8 µg/mL (≈ 5.57 µM)
MIC Enterococccus faecalis (ATCC 29212) [4]: 4 µg/mL (≈ 2.79 µM)
MIC Enterococccus faecalis (GC 2691) [4]: 4 µg/mL (≈ 2.79 µM)
MIC Enterococccus faecalis (GC 3059) [4]: 8 µg/mL (≈ 5.57 µM)
MIC Enterococccus faecalis (GC 4552) [4]: 4 µg/mL (≈ 2.79 µM)
MIC Enterococccus faecalis (GC 4553) [4]: 8 µg/mL (≈ 5.57 µM)
MIC Enterococccus faecalis (GC 4554) [4]: 4 µg/mL (≈ 2.79 µM)
MIC Enterococccus faecalis (GC 6189) [4]: 4 µg/mL (≈ 2.79 µM)
MIC Enterococccus faecium (GC 2243) [4]: 4 µg/mL (≈ 2.79 µM)
MIC Enterococccus faecium (GC 4556) [4]: 4 µg/mL (≈ 2.79 µM)
MIC Enterococccus faecium (GC 4557) [4]: 2 µg/mL (≈ 1.39 µM)
MIC Enterococcus faecalis (GC 2242) [4]: 4 µg/mL (≈ 2.79 µM)
